The results in this text go back to PubChem BioAssay (NCI).

Holding throughout (assay): DTP human tumour cell line panel, 48 h
Experiment [1] relates to A549 NSCLC.
The subject of experiment [2] is ACHN renal.
Experiment [3] deals with BT-549 breast.
For experiment [4], the system named is COLO 205 colon.
Experiment [5] concerns DU-145 prostate.
In experiment [6] the test system is EKVX NSCLC.
Experiment [7] relates to HOP-62 NSCLC.
For experiment [8], the system named is HT29 colon.
Experiment [9] concerns M14 melanoma.
For experiment [10], the system named is NCI-H226 lung.
The test system of experiment [11] is NCI-H23 lung.
For experiment [12], the system named is NCI-H522 lung.
Experiment [13] deals with RXF 393 renal.
For experiment [14], the system named is SNB-19 CNS.
Experiment [15] relates to SNB-75 CNS.
The subject of experiment [16] is T-47D breast.
Experiment [17] relates to TK-10 renal.
Experiment [18] relates to MALME-3M melanoma.

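96-well plates; 48 h exposure; 5 concentrations. Endpoints by linear interpolation between flanking doses. Not reached: highest tested concentration assigned. At the TGI there is no net growth.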 Where only a bound is given, the exact number is not on record here.

Broadly, the TGI is the concentration giving total growth inhibition. A higher TGI goes with lower sensitivity of the cells. Consider `O=c1oc2ccccc2cc1-c1csc(Nc2ccc(F)cc2)n1`, for which the concentration for total growth inhibition (TGI) in experiment [1] is 3.23 µM; in experiment [2], 26.3 µM; in experiment [3], 17.4 µM; in experiment [4], 14.9 µM; in experiment [5] it was 11.3 µM; in [6], 8.63 µM. In addition, the concentration for total growth inhibition (TGI) is 8.22 µM in experiment [7]; 14.2 µM in [8]; 13.6 µM in experiment [9]; 19.7 µM in experiment [10]; 11 µM in experiment [11]; 3.82 µM in [12]. For the same molecule, the TGI in [13] was 28.2 µM; in [14], more than 37.6 µM; in experiment [15] it was 4.57 µM; in [16], 10.7 µM; in experiment [17], 8.21 µM.
Turning to `CCOC(=O)CCCNC(=O)CCCCC(=O)N(C)C`, the total growth inhibition concentration (TGI) in experiment [1], in [2], in experiment [3], in experiment [4], in experiment [5] and in experiment [6] was more than 100 µM in each case. For the same molecule, the TGI in experiment [7], in experiment [8], in experiment [9], in [18], in experiment [10] and in experiment [11] was more than 100 µM each time. For the same molecule, the concentration for total growth inhibition (TGI) in experiment [12], in [14], in experiment [16] and in experiment [17] was more than 100 µM throughout.
On to `O=C1CCC2(c3ccccc3)Nc3ccncc3N12` (configuration not stated), for which the total growth inhibition concentration (TGI) in experiment [1], in [2], in [3], in experiment [5], in [6] and in experiment [8] was more than 10 µM each time. The concentration for total growth inhibition (TGI) in experiment [9], in experiment [18], in [10], in experiment [11], in experiment [12] and in experiment [14] was more than 10 µM in each case. In addition, the TGI in experiment [15], in experiment [16] and in experiment [17] was more than 10 µM each time.
With `COc1cc(/C=N\N(C)C)cc(/C=N/N(C)C)c1O`, the TGI in experiment [1] is more than 100 µM; in experiment [2], 87.9 µM; in [3] it was 61.9 µM; in [4], 46.9 µM; in experiment [5] it was more than 100 µM; in experiment [7] it was more than 100 µM. The total growth inhibition concentration (TGI) is 48 µM in [8]; 83.9 µM in experiment [9]; 56 µM in experiment [18]; 50.6 µM in experiment [10]; more than 100 µM in experiment [11]; more than 100 µM in experiment [12]. The total growth inhibition concentration (TGI) in [13] was more than 100 µM; in [14] it was more than 100 µM; in experiment [16] it was 15.2 µM; in experiment [17], more than 100 µM.
Turning to `CC(CCC(=O)O)(c1ccc(O)cc1)c1ccc(O)cc1`, the total growth inhibition concentration (TGI) in [1], in [2], in experiment [3], in [5], in [6] and in experiment [7] was more than 100 µM in each case. For the same molecule, the TGI in experiment [8], in experiment [9], in experiment [18], in experiment [10], in experiment [11] and in experiment [12] was more than 100 µM each time. The TGI in [13], in experiment [14], in experiment [16] and in [17] was more than 100 µM throughout.
For the molecule `C[N+](C)(C)CCCSc1nc2ccccc2[nH]1`, the total growth inhibition concentration (TGI) in [1], in [2], in [3], in experiment [4], in [5] and in [6] was more than 100 µM in each case. Besides, the TGI in [7], in [8], in experiment [9], in experiment [18], in experiment [10] and in [11] was more than 100 µM throughout. For the same molecule, the TGI in experiment [12], in experiment [13], in experiment [14], in experiment [16] and in experiment [17] was more than 100 µM in each case.
With `CCCC/C=C/C/C=C/CCCCCCCCC(=O)OCC1CCCN2CCCCC12` (configuration not stated), the TGI in [1], in [2], in experiment [3], in experiment [4], in [5] and in experiment [6] was more than 100 µM in each case. The TGI in experiment [7], in experiment [8], in experiment [9], in experiment [18], in experiment [10] and in experiment [11] was more than 100 µM throughout. Also, the TGI in [13] is more than 100 µM; in experiment [14], more than 100 µM; in [15], more than 100 µM; in experiment [16] it was 88.6 µM; in experiment [17] it was more than 100 µM.
Consider `O=C1CSSCC(=O)Nc2ccccc2N1`, for which the TGI in [1], in experiment [2], in experiment [3], in experiment [4], in [5] and in [6] was more than 100 µM each time. Moreover, the TGI in experiment [7], in experiment [8], in [9], in experiment [18], in [10] and in experiment [11] was more than 100 µM throughout. The TGI in experiment [12], in experiment [13], in experiment [14], in [16] and in experiment [17] was more than 100 µM each time.
As to `COC(=O)C1=C(O)C(C(=O)OC)[C@]2(O)[C@H](C(=O)OC)[C@H]1C[C@@H](c1ccc(Cl)cc1)[C@H]2C(=O)OC` (some centres not stated), the TGI in experiment [1] is 89.5 µM; in experiment [2] it was 39.9 µM; in experiment [3] it was 38.9 µM; in experiment [4] it was 25.1 µM; in experiment [5] it was 30.4 µM; in experiment [6], 30.6 µM. Also, the TGI in experiment [7] was 24 µM; in experiment [8], 32 µM; in [9] it was 19.5 µM; in [18] it was 25.1 µM; in experiment [10], 38.2 µM; in experiment [11], 22.9 µM. The TGI in experiment [13] was 19.1 µM; in [14], 29.8 µM; in experiment [15], 38.7 µM; in experiment [16], more than 100 µM; in [17], 33.5 µM.
For `O=C(O)COCC(=O)N(CCOCCN(Cc1ccccc1)C(=O)COCC(=O)O)Cc1ccccc1`, the TGI in experiment [1], in [2], in [3], in [4], in experiment [5] and in experiment [6] was more than 100 µM throughout. Also, the TGI in experiment [7], in [8], in [9], in experiment [18], in experiment [10] and in experiment [11] was more than 100 µM throughout. Moreover, the total growth inhibition concentration (TGI) in experiment [12], in experiment [13], in experiment [14], in experiment [16] and in experiment [17] was more than 100 µM throughout.
Regarding `COc1cc(/C=C2/SC(c3ccccc3)N(c3ccccc3Cl)C2=O)cc(OC)c1OC` (configuration not stated), the TGI was more than 100 µM in experiment [1]; more than 100 µM in experiment [2]; 85.1 µM in experiment [3]; 95.5 µM in experiment [4]; more than 100 µM in [5]; more than 100 µM in [6]. Moreover, the TGI in experiment [7] was more than 100 µM; in [9], more than 100 µM; in experiment [18], 64.7 µM; in experiment [10], more than 100 µM; in experiment [11] it was 81.7 µM; in experiment [12] it was 32.3 µM. In addition, the concentration for total growth inhibition (TGI) in experiment [13] was 70.2 µM; in [14], more than 100 µM; in [16], more than 100 µM; in experiment [17] it was more than 100 µM.
Regarding `C=C1[C@H](OC(C)=O)[C@H]2[C@@H](OC(C)=O)[C@@H](C)C[C@]2(C)C(=O)[C@H](C)/C=C/C(C)(C)C(=O)[C@H](OCC(C)C)[C@H]1OC(C)=O`, the TGI in experiment [2], in experiment [3], in [4], in experiment [5], in [6] and in [7] was more than 25 µM in each case. In addition, the total growth inhibition concentration (TGI) in experiment [9], in experiment [10], in [11], in experiment [12], in experiment [13] and in [14] was more than 25 µM throughout. The total growth inhibition concentration (TGI) in experiment [15], in experiment [16] and in experiment [17] was more than 25 µM in each case.
As to `CC(C)(C)/C(=N\Nc1nc2ccccc2[nH]1)c1ccccn1`, the TGI in experiment [1], in [2], in experiment [3], in [4], in experiment [5] and in [7] was more than 100 µM in each case. For the same molecule, the TGI in experiment [8] was more than 100 µM; in experiment [9], more than 100 µM; in experiment [18] it was 61.5 µM; in [10] it was more than 100 µM; in [11] it was more than 100 µM; in [12] it was more than 100 µM. The total growth inhibition concentration (TGI) in experiment [13] is more than 100 µM; in experiment [14], more than 100 µM; in experiment [16] it was more than 100 µM; in experiment [17], 67.8 µM.
